Measurements taken from patent US5089507A, “Heterocyclic piperidinyl compounds having analgesic effect” (Dr. L. Zambeletti SpA, priority 1988, dated 1992).
Structures can show the parent of a compound that is named as a salt.

How the values were obtained:
Type in all cases: in vivo, Male Charles River mice (Swiss Strain)
[1] = tested on: mice (p-phenylquinone-induced abdominal writhing); assay: P-phenylquinone-induced abdominal writhing test in mice; conditions: sc, 20 min pretreatment, p-phenylquinone 2 mg/Kg i.p.; for ED50: Mus musculus, 20 min, read-out: ANALGESIA M. WRITHING (GRADED) ED50
Protocol: A) P-phenylquinone-induced abdominal writhing test in mice
The methodology employed is based on that described by Sigmund et al, Proc. Soc. Exptl. Biol. 95, 729/1957, modified by Milne and Twomey, Agents and Actions, 10, 31/1980.
Male Charles River mice (Swiss Strain), 25-36 g body weight, were used. Animals were allowed food and water ad libitum and were randomized into groups of 10 prior to experimentation. Test compounds were dissolved in either distilled water or distilled water plus 0.1M AMS, and administered by the subcutaneous route in a final volume of 10 ml/Kg. Control animals received 10 ml/Kg of the appropriate vehicle alone. Following a pretreatment period of 20 min., mice were injected intraperitoneally with p-phenylquinone, 2 mg/Kg at 37° C. in a final volume of […]. […] During this period the number of abdominal writhing responses per animal were recorded where writhing consists of an intermittent contraction of the abdomen associated with hind leg extension.
The degree of antinociceptive protection afforded by the test compound was determined as the mean number of writhing responses observed in the treated group (T) expressed as a percentage of the mean number of writhing responses in the control group (C) according to the following formula:
[1-(T/C]×100% graded protection

mice (tail-flick) [2] = assay: Tail-flick test in mice (quantal protection); conditions: sc, 30 min pretreatment; for ED50: Mus musculus, 0.5 h, read-out: ANALGESIA M. TAIL-FLICK (QUANTAL) ED50; for ANALGESIA M. TAIL-FLICK (QUANTAL) ED50: 30 min
Protocol: (§1) B) Tail-flick test in mice
(§2) The methodology employed is based on that described by D'Amour and Smith, J. Pharmacol. Exp. Ther. 72, 74/1941.
(§3) Male Charles River mice (Swiss Strain), 22-34 g body weight were used. Animals were allowed food and water ad libitum and were randomized into groups of 10 prior to experimentation.
(§4) Test compounds were dissolved in either distilled water or distilled water plus 0.1M AMS and administered by the subcutaneous route in a final volume of 10 ml/Kg. Control animals received 10 ml/kg of the appropriate vehicle alone. Following a pretreatment period of 30 min., the mice were again placed under the heat source and the reaction tine re-determined.
Percentage quantal protection was determined as the number of mice in which the reaction time was doubled compared to pretreatment values, expressed as a percentage of the total number of mice in the group.

mice (tail-flick) [3] = assay: Duration of action, M. tail-flick (graded), % activity at MTFQ ED50; conditions: mouse, sc
Protocol: as §1, §2, §3
as §4, with “re-determined. […]” for “re-determined.”

Compound	ED50 [1] [mg/kg]	ED50 (mice (tail-flick) [2]) [mg/kg]	DURATION OF ACTION M. TAIL-FLICK (GRADED) % ACTIVITY AT MTFQ ED50, 30' (mice (tail-flick) [3]) [%]	DURATION OF ACTION M. TAIL-FLICK (GRADED) % ACTIVITY AT MTFQ ED50, 90' (mice (tail-flick) [3]) [%]	ANALGESIA M. WRITHING (GRADED) ED50 ([1]; mouse) [mg/kg]	ANALGESIA M. TAIL-FLICK (QUANTAL) ED50 (mice (tail-flick) [2]; mouse) [mg/kg]	ANALGESIA M. TAIL-FLICK (QUANTAL) % protection at 1.78 mg/Kg (mice (tail-flick) [2]; mouse, 1.78 mg/Kg) [%]	ANALGESIA M. TAIL-FLICK (QUANTAL) % protection at 10 mg (mice (tail-flick) [2]; mouse) [%]
CC1(C)CCN(C(=O)Cc2ccc(Cl)c(Cl)c2)C(CN2CCCC2)C1 (stereo not drawn) [Example 14, 1-(3,4-dichlorophenyl)acetyl-2-(pyrrolidin-1-yl)methyl-4,4-dimethyl piperidine hydrochloride]	0.147	0.824	69	69				
CC1CCN(C(=O)Cc2ccc(Cl)c(Cl)c2)C(CN2CCCC2)C1 (single isomer, unassigned; diastereoisomer a) [Example 3, 1-(3,4-dichlorophenylacetyl)-2-(pyrrolidin-1-yl)methyl-4-methyl piperidine hydrochloride hemihydrate diastereoisomer A]	0.149	0.202	86	17				
CC1CCCN(C(=O)Cc2ccc(Cl)c(Cl)c2)C1CN1CCCC1 (single isomer, unassigned) [Example 2, 1-(3,4-dichlorophenyl)acetyl-2-(pyrrolidin-1-yl)methyl-3-methyl piperidine hydrochloride diasteroisomer B]			66	44	0.091	0.147		
CC1CCCC(CN2CCCC2)N1C(=O)Cc1ccc(Cl)c(Cl)c1 (single isomer, unassigned; diastereoisomer a) [Example 6, 1-(3,4-dichlorophenyl)acetyl-2-(pyrrolidin-1-yl)methyl-6-methyl piperidine hydrochloride hemihydrate Diastereoisomer A]			77	35			60	
CC1(C)CCCN(C(=O)Cc2ccc3c(c2)CCCC3)C1CN1CCCC1 (stereo not drawn) [Example 12, 1-(5,6,7,8-tetrahydronapht-2-yl)acetyl-2-(pyrrolidin-1-yl) methyl-3,3-dimethyl piperidine hydrochloride]	0.273	1.21	67	65				
CC1(C)CCCN(C(=O)Cc2ccc3c(c2)CCCC3=O)C1CN1CCCC1 (stereo not drawn) [Example 13, 1-[1-oxo-3,4-dihydro-(2H)-napht-6-yl]acetyl-2-(pyrrolidin-1-yl)methyl-3,3-dimethyl piperidine]								60
CC1(C)CCCN(C(=O)Cc2ccc(Cl)c(Cl)c2)C1CN1CCCC1 (stereo not drawn) [Example 9, 1-(3,4-dichlorophenyl)acetyl-2-(pyrrolidin-1-yl)methyl-3,3-dimethyl piperidine hydrochloride]	0.029	0.136	86	58				
CC1CCC(CN2CCCC2)N(C(=O)Cc2ccc(Cl)c(Cl)c2)C1 (single isomer, unassigned) [Example 4, 1-(3,4-dichlorophenylacetyl)-2-(pyrrolidin-1-yl)methyl-5-methyl piperidine hydrochloride diasteroisomer A]	0.163	0.749	80	54				
CC1CCCC(CN2CCCC2)N1C(=O)Cc1ccc(Cl)c(Cl)c1 (single isomer, unassigned; diastereoisomer a) [Example 5, 1-(3,4-dichlorophenyl)acetyl-2-(pyrrolidin-1-yl)methyl-6-methyl piperidine hydrochloride diastereoisomer A]	0.03	0.135	83	42				
CC1(C)CCCN(C(=O)Cc2ccc(C(F)(F)F)cc2)C1CN1CCCC1 (stereo not drawn) [Example 10, 1-(4-trifluoromethylphenyl)acetyl-2-(pyrrolidin-1-yl)methyl-3,3-dimethyl piperidine hydrochloride]	0.023	0.116	59	57				
CC1(C)CCC(CN2CCCC2)N(C(=O)Cc2ccc(Cl)c(Cl)c2)C1 (stereo not drawn) [Example 11, 1-(3,4-dichlorophenyl)acetyl-2-(pyrrolidin-1-yl)methyl-5,5-dimethyl piperidine hydrochloride]	0.605	1.16	59	57				
CC1CCCN(C(=O)Cc2ccc(Cl)c(Cl)c2)C1CN1CCCC1 (single isomer, unassigned) [Example 1, 1-(3,4-dichlorophenyl)acetyl-2-(pyrrolidin-1-yl)methyl-3-methyl piperidine hydrochloride hemihydrate diasteroisomer A]	0.093		87	68		0.405		
O=C(Cc1ccc(Cl)c(Cl)c1)N1CCC[C@@H](O)[C@@H]1CN1CCCC1 (relative stereo) [Example 7, 1-(3,4-dichlorophenyl)acetyl-2-(pyrrolidin-1-yl)methyl-3-hydroxy piperidine hydrochloride diastereoisomer A trans]	0.141	0.825						
CC1(C)CCN(C(=O)Cc2ccc(C(F)(F)F)cc2)C(CN2CCCC2)C1 (stereo not drawn) [Example 15, 1-(4-trifluoromethylphenyl)acetyl-2-(pyrrolidin-1-yl)methyl-4,4-dimethyl piperidine hydrochloride]	0.242	1.8	58	63				
O=C(Cc1ccc(Cl)c(Cl)c1)N1CCC[C@H](O)[C@@H]1CN1CCCC1 (relative stereo) [Example 8, 1-(3,4-dichlorophenyl)acetyl-2-(pyrrolidin-1-yl)methyl-3-hydroxy piperidine hydrochloride diastereoisomer B cis]								20
